From ChEMBL document CHEMBL1141784, “Phaeochromycins A-E, anti-inflammatory polyketides isolated from the soil actinomycete Streptomyces phaeochromogenes LL-P018” (J Nat Prod, 2005) come the findings set out here.

The assay has as its target MAP kinase-activated protein kinase 2 (Homo sapiens, UniProt P49137). In words: Inhibition of human recombinant MK2 by ELISA. A general note: ELISA stands for enzyme-linked immunosorbent assay.

Sequence of MAP kinase-activated protein kinase 2 (P49137 whole entry): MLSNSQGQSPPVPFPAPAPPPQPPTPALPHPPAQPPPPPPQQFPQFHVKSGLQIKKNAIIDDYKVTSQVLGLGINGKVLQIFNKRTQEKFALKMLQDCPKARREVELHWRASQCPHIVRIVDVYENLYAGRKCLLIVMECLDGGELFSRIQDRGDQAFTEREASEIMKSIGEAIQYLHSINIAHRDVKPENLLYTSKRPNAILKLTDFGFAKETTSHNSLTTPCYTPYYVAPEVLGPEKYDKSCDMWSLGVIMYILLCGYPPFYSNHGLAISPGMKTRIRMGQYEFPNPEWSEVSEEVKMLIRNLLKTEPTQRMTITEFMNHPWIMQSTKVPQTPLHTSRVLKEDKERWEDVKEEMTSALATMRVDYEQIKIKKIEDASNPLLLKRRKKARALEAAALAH

For `CCCc1cc(=O)c2c(Cc3cc(O)cc(=O)o3)cccc2o1` [PHAEOCHROMYCIN C], the IC50 (commonly the concentration that inhibits the measured activity by half) was 130 µM.
As for `CCCc1cc(O)c2c(O)cccc2c1-c1cc(O)cc(=O)o1` [PHAEOCHROMYCINS A], the figure is 39 µM.
